{
  "source": "patent US20050131029A1",
  "about": "“Immunophilin ligand treatment of antiretroviral toxic neuropathy” (priority 2003, published 2005)",
  "key": {"[1]": {"tested_on": "primary DRG sensory neurons", "assay_type": "cell-based, rat", "details": "for relative neurotoxicity (potency in inhibiting neuritic outgrowth): comparison between NRTIs"}, "[2]": {"tested_on": "primary DRG sensory neurons", "test": "Neuronal mitochondrial toxicity assay (JC-1 red:green fluorescence in TTC-labeled neurons)", "details": "4 hours; NRTIs 1-100 μM, FCCP 25 μM"}, "[3]": {"tested_on": "primary DRG sensory neurons", "assay_type": "cell-based"}, "[4]": {"tested_on": "primary DRG sensory neurons", "details": "rat, 4 h"}, "Schwann cells [5]": {"tested_on": "Schwann cells", "test": "Cell death in Schwann cells of the co-cultures", "assay_type": "cell-based, rat", "details": "ddC dose of 1 mM (data not shown)"}, "Schwann cells [6]": {"tested_on": "Schwann cells"}, "[7]": {"details": "NRTI 1-100 μM added at 3 hours, 15 hours of further incubation"}},
  "data": [
    {"smiles": "Cc1cn([C@H]2C[C@H](N=[N+]=[N-])[C@@H](CO)O2)c(=O)[nH]c1=O", "note": "[AZT, zidovudine]", "values": [
      {"measurement": "effect on neuritic morphology", "setting": "[1]; [7]", "result": "did not have any appreciable effect on neuritic morphology, even at high doses"},
      {"measurement": "relative neurotoxicity (potency in inhibiting neuritic outgrowth)", "setting": "[1]", "result": "did not exert significant neurotoxicity"}
    ]},
    {"smiles": "N#CC(C#N)=NNc1ccc(OC(F)(F)F)cc1", "note": "[FCCP]", "values": [
      {"measurement": "JC-1 red:green luminosity ratio (mitochondrial membrane potential differential)", "setting": "[2]", "result": "loss of mitochondrial membrane potential"}
    ]},
    {"smiles": "C=CC[C@@H]1/C=C(\\C)C[C@H](C)C[C@H](OC)[C@H]2O[C@@](O)(C(=O)C(=O)N3CCCC[C@H]3C(=O)O[C@H](/C(C)=C/[C@@H]3CC[C@@H](O)[C@H](OC)C3)[C@H](C)[C@@H](O)CC1=O)[C@H](C)C[C@@H]2OC", "note": "[FK506]", "values": [
      {"measurement": "concentrations at which prevention of neuronal cell death was most prominent", "setting": "[3]; ddC 10 μM, 18 hours", "result": "10 to 100", "unit": "nM"}
    ]},
    {"smiles": "Nc1ccn([C@H]2CC[C@@H](CO)O2)c(=O)n1", "note": "[ddC, 2′,3′-dideoxycytidine]", "values": [
      {"measurement": "concentration achieving the same level of mitochondrial membrane depolarization as (25 μM) FCCP", "setting": "[4]", "result": 1000, "unit": "nM"},
      {"measurement": "cell death in Schwann cells", "setting": "Schwann cells [5]", "result": "no cell death"},
      {"measurement": "mitochondrial depolarization in Schwann cells", "setting": "Schwann cells [6]", "result": "no evidence of mitochondrial depolarization"},
      {"measurement": "TUNEL staining of neurons (marker of apoptosis)", "setting": "[3]; ddC 10 μM, 18 hours (data not shown)", "result": "lack of DNA laddering"},
      {"measurement": "neuronal cell death (percentage of neurons labeling with live-cell marker)", "setting": "[3]; exposure for 18 hours, varying doses", "result": "higher doses of ddC were associated with a lower percentage of neurons labeling with the “live-cell” marker"},
      {"measurement": "effect on neuritic morphology", "setting": "[1]; [7]", "result": "frank neuritic degeneration was also seen"},
      {"measurement": "total neuritic length and number of neurites per neuron", "setting": "[1]; [7]", "result": "dose-dependent reduction"},
      {"measurement": "relative neurotoxicity (potency in inhibiting neuritic outgrowth)", "setting": "[1]", "result": "most neurotoxic"}
    ]},
    {"smiles": "O=c1[nH]cnc2c1ncn2[C@H]1CC[C@@H](CO)O1", "note": "[ddl, didanosine]", "values": [
      {"measurement": "concentration achieving the same level of mitochondrial membrane depolarization as (25 μM) FCCP", "setting": "[4]", "result": 1000, "unit": "nM"}
    ]}
  ]
}
